Test systems include KM12 colon; SF-295 CNS; NCI-H522 lung; DU-145 prostate; BT-549 breast; T-47D breast; LOX IMVI melanoma; SW-620 colon; OVCAR-3 ovarian; SF-539 CNS.
Holding throughout (test): NCI anticancer screen, dose series, 48 h

Values joined by “and” are separate entries in the source; they are usually repeats but may differ in a detail not shown here. Equal values may be shown once.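 All cell lines were grown in 96-well plates and treated with compound for 48 hours. GI50 = concentration required for 50% inhibition of growth. Definition used: TGI = concentration required for complete inhibition of growth.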

Results on 7 compounds are retold here after PubChem BioAssay (NCI).

Regarding `C=C1C(=O)C23CC1C[C@H](OC(C)=O)[C@H]2C1(C)C(OC(C)=O)C[C@H](O)C(C)(C)[C@H]1C(=O)[C@@H]3OC(C)=O` (stereo partly drawn), the TGI with KM12 colon was 23.8 µM; in the assay with SF-295 CNS it was 31.9 µM; in the assay on NCI-H522 lung, 3.48 µM; with DU-145 prostate, 25.7 µM; in the assay with BT-549 breast it was 7.4 µM; in the assay on T-47D breast, 5.44 µM. Also, the TGI in the assay on LOX IMVI melanoma was determined as 10.3 µM; with SW-620 colon it was 3.6 µM; in the assay on OVCAR-3 ovarian, 12.7 µM; in the assay with SF-539 CNS, 6.47 µM.
As for `C=CCC(N[C@H](CO)c1ccccc1)c1ccc2ccccc2n1` (stereo partly drawn), the GI50 in the assay on KM12 colon, in the assay on SF-295 CNS, with NCI-H522 lung, in the assay with DU-145 prostate, in the assay with BT-549 breast and in the assay with T-47D breast was above 100 µM each time. In addition, the GI50 with LOX IMVI melanoma, in the assay on SW-620 colon, in the assay with OVCAR-3 ovarian and in the assay on SF-539 CNS was above 100 µM throughout. The TGI in the assay on KM12 colon, in the assay on SF-295 CNS, in the assay on NCI-H522 lung, in the assay on DU-145 prostate, in the assay on BT-549 breast and with T-47D breast was above 100 µM throughout. Moreover, the TGI in the assay on LOX IMVI melanoma, in the assay with SW-620 colon, with OVCAR-3 ovarian and in the assay with SF-539 CNS was above 100 µM each time.
Regarding `COc1cc(/C=C/C(=O)CC(=O)/C=C/c2cc(OC)c(OC)c(OC)c2)cc(OC)c1OC`, the GI50 with KM12 colon was 4.58 µM; in the assay on SF-295 CNS it was 3.16 µM; in the assay with NCI-H522 lung, 1.9 µM; with DU-145 prostate it was 6.71 µM; with BT-549 breast, 4.28 µM; with T-47D breast, 3.98 µM. Besides, the GI50 in the assay on LOX IMVI melanoma is 2.19 µM; with SW-620 colon, 2.56 µM; with OVCAR-3 ovarian, 2.34 µM; in the assay on SF-539 CNS, 4.85 µM. For the same compound, the TGI was found to be 63 µM in the assay with KM12 colon; 17.2 µM in the assay on SF-295 CNS; 3.78 µM in the assay on NCI-H522 lung; 31.9 µM in the assay on DU-145 prostate; 22.1 µM with BT-549 breast; 84.5 µM with T-47D breast. In addition, the TGI with LOX IMVI melanoma is 9.14 µM; in the assay on SW-620 colon it was 11.3 µM; in the assay with OVCAR-3 ovarian, 5.91 µM; in the assay with SF-539 CNS, 71.8 µM.
Take `CC(O)c1cccc(NCc2c3ccccc3c(=O)n3c2oc2ccccc23)c1` (stereo not drawn): the GI50 was 13.4 µM in the assay with KM12 colon; 2.43 µM in the assay on SF-295 CNS; 5.55 µM in the assay on NCI-H522 lung; 5.46 µM with DU-145 prostate; 3.95 µM in the assay with BT-549 breast; 14.4 µM in the assay on T-47D breast. The GI50 in the assay with LOX IMVI melanoma is 8.02 µM; in the assay with SW-620 colon it was 13.6 µM; in the assay with OVCAR-3 ovarian, 9.25 µM; in the assay with SF-539 CNS, 1.37 µM. The TGI with KM12 colon is above 100 µM; in the assay with SF-295 CNS it was 14.5 µM; in the assay with NCI-H522 lung it was 45.1 µM; with DU-145 prostate, above 100 µM; in the assay on BT-549 breast it was 14.7 µM; in the assay with T-47D breast, 64.6 µM. Further, the TGI was 36 µM with LOX IMVI melanoma, above 100 µM in the assay on SW-620 colon, 85.2 µM in the assay with OVCAR-3 ovarian and 3.43 µM in the assay with SF-539 CNS.
For `Cn1c([N+](=O)[O-])cnc1/C=C1\Oc2ccccc2C1=O`, the GI50 in the assay with KM12 colon is 0.412 µM; in the assay on SF-295 CNS, 1.65 µM; in the assay on NCI-H522 lung, 0.552 µM; in the assay with DU-145 prostate, 0.307 µM; with BT-549 breast it was 0.659 µM; with T-47D breast, 12.7 µM. For the same compound, the GI50 in the assay with LOX IMVI melanoma was 0.176 µM; in the assay on SW-620 colon, 0.15 µM; in the assay on OVCAR-3 ovarian, 0.527 µM; in the assay with SF-539 CNS, 1.78 µM. Further, the TGI with KM12 colon was found to be 2.46 µM; with SF-295 CNS, 6.19 µM; in the assay on NCI-H522 lung, 2.26 µM; with DU-145 prostate, 1.15 µM; with BT-549 breast, 4.17 µM; in the assay with T-47D breast it was 68.8 µM. In addition, the TGI in the assay with LOX IMVI melanoma is 0.506 µM; in the assay with SW-620 colon, 2.02 µM; with OVCAR-3 ovarian, 5.21 µM; in the assay on SF-539 CNS, 4.74 µM.
For `CC(C)=CCCC(C)c1ccc(C)c2c1OCN(CC1CCNCC1)C2` (stereo not drawn), the GI50 with KM12 colon was 12.3 µM; in the assay with SF-295 CNS, 15.9 µM; in the assay on NCI-H522 lung, 13.5 µM; in the assay on DU-145 prostate, 16.4 µM; with BT-549 breast, 16.9 µM; with T-47D breast it was 15.2 µM. The GI50 in the assay on LOX IMVI melanoma is 5.87 µM; with SW-620 colon, 9.87 µM; in the assay with OVCAR-3 ovarian, 15.6 µM; with SF-539 CNS, 13.7 µM. In addition, the TGI with KM12 colon was determined as 26 µM; in the assay with SF-295 CNS, 34.9 µM; in the assay with NCI-H522 lung it was 28.6 µM; with DU-145 prostate, 32.2 µM; in the assay on BT-549 breast, 41.6 µM; in the assay on T-47D breast, 33.2 µM. Moreover, the TGI in the assay on LOX IMVI melanoma is 20.2 µM; with SW-620 colon, 23.1 µM; in the assay on OVCAR-3 ovarian, 31.1 µM; with SF-539 CNS, 27.5 µM.
For the compound `COC(=O)CCc1cc(OC)c2c(c1)C(C(=O)OC)C(c1ccc(OC)c(OC)c1)O2` (stereo not drawn), the GI50 was > 100 µM and 19.6 µM in the assay with KM12 colon; > 100 µM and 17.1 µM in the assay on SF-295 CNS; > 100 µM and 19.9 µM in the assay with NCI-H522 lung; above 100 µM in the assay on DU-145 prostate; > 100 µM and 12.1 µM in the assay with LOX IMVI melanoma; > 100 µM and 17.3 µM in the assay with SW-620 colon. Besides, the GI50 in the assay with OVCAR-3 ovarian is > 100 µM and 13.9 µM; in the assay with SF-539 CNS, > 100 µM and 11.1 µM. Moreover, the TGI in the assay with KM12 colon, with SF-295 CNS, with NCI-H522 lung, in the assay with DU-145 prostate, in the assay on BT-549 breast and in the assay on T-47D breast was above 100 µM throughout. For the same compound, the TGI was above 100 µM in the assay on LOX IMVI melanoma; above 100 µM in the assay with SW-620 colon; above 100 µM in the assay on OVCAR-3 ovarian; > 100 µM and 47.3 µM with SF-539 CNS.
